Tested on: Vero Cells
Assay: MTT assay, cytotoxicity of the test compounds
Assay type: cell-based
Details: not tested for inhibitory effect

O=c1ccn([C@@H]2O[C@H](COCc3ccccc3)[C@H](OCc3ccccc3)[C@H](OCc3ccccc3)[C@H]2I)c(=O)[nH]1 [3h]
cytotoxicity (in words): cytotoxic

Source: article PMC12285759 (RSC Advances, 2025)
